Converted amounts (≈) assume the structure as drawn.

For this series the following is noted: buffer; pH 7.4; 200.0 µM.
Molecule `COc1ccc(Cl)cc1N=Cc1c(O)c2ccccc2oc1=O` gave a solubility (kinetic) of less than 0.7 µg/mL. The molecule `O=C(CSc1n[nH]c(=O)n1C1CC1)NCc1ccccc1Cl` gave a kinetic solubility of more than 50.8 µg/mL.

Regarding `CCC(=O)Nc1cc(-c2nc3ncccc3o2)ccc1Cl`, the kinetic solubility turned out to be 13.8 µg/mL (≈ 45.7 µM). On to `Cc1ccc(C(=O)Nc2nccc(C)n2)cc1`, for which the kinetic solubility came to 21.9 µg/mL (≈ 96.4 µM). `COc1ccccc1-c1cc(C(=O)N2CCCC2)no1` yielded a solubility (kinetic) of more than 40.8 µg/mL. For the molecule `CC(C)Oc1ccc(C(=O)Nc2ccc3c(c2)n(C)c(=O)n3C)cc1`, the solubility (kinetic) was determined as 13.5 µg/mL (≈ 39.8 µM). In the case of `O=C(O)CSc1nc2ccccc2nc1Cc1ccccc1F`, the kinetic solubility was 47.7 µg/mL (≈ 145 µM). Regarding `CCOc1ccc(CCNC(=O)COC(=O)/C=C/c2ccco2)cc1OCC`, the kinetic solubility amounted to 39.5 µg/mL (≈ 102 µM). `Cc1c(Cl)cccc1NC(=S)NCCc1ccccn1` returned a solubility (kinetic) of more than 45.9 µg/mL. For `c1ccc(CCc2ccncc2)cc1`, the solubility (kinetic) turned out to be 13 µg/mL (≈ 70.9 µM). Take `CCOC(=O)/C=C(C)\C=C\c1c[nH]c2ccccc12`: the kinetic solubility amounted to 12.5 µg/mL (≈ 49 µM).

Consider `COc1ccc2nc(N3C(=O)CNC3=S)sc2c1`, for which the kinetic solubility was determined as 19.5 µg/mL (≈ 69.8 µM). The value for `Cc1ccc(-c2noc(-c3c(C)noc3C)n2)cc1` was less than 0.2 µg/mL; that for `CC1SCC(NC(=O)c2cccc(Cl)c2)CS1` (stereo unspecified) was more than 43.2 µg/mL. For the molecule `O=C(O)c1cc(-c2ccc(Cl)cc2)n(-c2ccc(F)cc2)n1`, the solubility (kinetic) is more than 47.5 µg/mL. The value for `CC(C)C(OC(=O)c1ccccc1)c1nccc2ccccc12` (stereo unspecified) was 6.9 µg/mL (≈ 22.6 µM); that for `CCC(=O)Nc1nc2ccccc2n1Cc1ccccc1Cl` was 1.7 µg/mL (≈ 5.42 µM). The molecule `Cc1ccc(OC(C)C(=O)N2CC(=O)Nc3ccccc32)cc1` (stereo unspecified) came in with a kinetic solubility of more than 46.6 µg/mL. For `CCOC(=O)C(NC(=O)C1C(C)N1S(=O)(=O)c1ccc(C)cc1)C(=O)OCC` (stereo unspecified) the value was more than 61.9 µg/mL; for `O=C(NC1CCCC1)c1cc(-c2ccc(Cl)cc2Cl)on1`, 1 µg/mL (≈ 3.08 µM).

Molecule `CCC1(C)Cc2c(sc3[nH]c(=S)[nH]c(=S)c23)CO1` (stereo unspecified) came in with a solubility (kinetic) of 27.7 µg/mL (≈ 92.8 µM).

For `COCC(C)NC(=O)c1cc2cc(OC)ccc2[nH]1` (stereo unspecified), the solubility (kinetic) amounted to 29.7 µg/mL (≈ 113 µM).

In the case of `COC(=O)c1sccc1NC(=O)CSCCc1ccncc1`, the solubility (kinetic) amounted to 49.6 µg/mL (≈ 147 µM). The value for `Cc1cc(C)cc(N2CC(C(=O)NC3CCCCC3)CC2=O)c1` (stereo unspecified) was 11.4 µg/mL (≈ 36.3 µM). Take `O=C(c1cccs1)N1CCN=C1SCc1ccccc1F`: the solubility (kinetic) was less than 0.3 µg/mL.

For `O=C(Nc1ccc(Cl)cc1)N1CCSC1=NCc1ccccc1`, the solubility (kinetic) amounted to 26 µg/mL (≈ 75.2 µM). In turn, `Cc1cccc(-c2noc(CCC(=O)Nc3ccc(C(N)=O)cc3)n2)c1` registered a kinetic solubility of 0.5 µg/mL (≈ 1.43 µM). Consider `COc1ccc(NC(=O)NC(c2ccccc2)c2ccccc2)c(OC)c1`, for which the kinetic solubility is less than 0.4 µg/mL. In turn, `CCOc1ncccc1C(=O)Nc1nc(C(C)(C)C)cs1` came in with a solubility (kinetic) of 0.6 µg/mL (≈ 1.96 µM). On to `N#Cc1ccc(OCC(=O)Nc2ccc(N3CCCC3)cc2)cc1`, for which the kinetic solubility stood at 5.9 µg/mL (≈ 18.4 µM).

The molecule `N#C/C(=C\Nc1ccc2c(c1)OCCO2)C(=O)NCc1ccco1` came in with a kinetic solubility of 4.6 µg/mL (≈ 14.1 µM). `CCOc1ccccc1C(=O)OCC(=O)Nc1cccc(S(=O)(=O)N2CCCC2)c1`: the kinetic solubility amounted to 19.2 µg/mL (≈ 44.4 µM).

`O=C1CNC(=O)/C(=C\c2ccccc2)N1` returned a kinetic solubility of more than 30.3 µg/mL. The value for `COc1ccc(Nc2cc(C)c3c(O)cccc3n2)cc1` was 22.1 µg/mL (≈ 78.8 µM); that for `Cc1cccc(NC(=O)C(c2ccccc2Cl)N2CCOCC2)c1` (stereo unspecified) was 48.9 µg/mL (≈ 142 µM); that for `CN1CCC(N(C)c2ccc(C(N)=O)cc2[N+](=O)[O-])CC1` was 40.1 µg/mL (≈ 137 µM). The value for `COc1cc2c(C(=O)O)c(C)n(C)c2c2ccccc12` was 7.4 µg/mL (≈ 27.5 µM); that for `Cc1ccc(C(=O)Nn2cnc3ccccc3c2=O)cc1C` was more than 44 µg/mL; that for `CC(=O)Oc1ccc(C(=O)NCc2ccco2)cc1` was 37.6 µg/mL (≈ 145 µM). Turning to `COc1ccc(NC(=O)Nc2ccc3c(c2)CCC3)cc1`, the kinetic solubility was less than 0.3 µg/mL. For `COc1ccccc1C(C[N+](=O)[O-])c1c[nH]c2ccccc12` (stereo unspecified) the value was 9 µg/mL (≈ 30.4 µM); for `Cc1c(N=Cc2c(O)n(C)c(=O)[nH]c2=O)c(=O)n(-c2ccccc2)n1C`, more than 53.3 µg/mL. Turning to `CSc1nc(N2CCN(C)CC2)c2c(c1C#N)CC(C)(C)OC2`, the solubility (kinetic) is more than 49.9 µg/mL. For `COc1ccc(S(=O)(=O)Nc2ccc(Cl)cn2)cc1` the value was 14.4 µg/mL (≈ 48.2 µM); for `O=C(NCCC1CC1(Cl)Cl)Nc1ccccc1` (stereo unspecified), more than 41 µg/mL; for `COc1ccccc1CNC(=O)COc1ccccc1C`, 38.4 µg/mL (≈ 135 µM). Regarding `CCOC(=O)c1sc(S(C)(=O)=O)c2c1CC(C)(C)C/C2=N/O`, the solubility (kinetic) is more than 51.8 µg/mL. For `Cc1oc(-c2cccc(C(F)(F)F)c2)nc1CN1CCOCC1` the value was 44.3 µg/mL (≈ 136 µM). For `O=C(CSc1ncccc1C(=O)O)NC1CCCCC1` the value was 39.8 µg/mL (≈ 135 µM); for `O=[N+]([O-])c1ccc(S(=O)(=O)NCCCc2ccccc2)cc1`, 28 µg/mL (≈ 87.4 µM). In turn, `CCOc1ccccc1NC(=O)CN1CCc2ccccc2C1` returned a solubility (kinetic) of 1.9 µg/mL (≈ 6.12 µM).
